In PMC11263391, “Molecular insights into degron recognition by CRL5^ASB7 ubiquitin ligase” (Nature Communications, 2024):
Read-outs that look alike come from different tables or passages of the source. Residues, ends and D or L forms follow the SMILES beside them.

Molecular target: T1, ASB7-Elongin B/C (Homo sapiens, UniProt Q9H672)
T1 construct: The human ASB7 (residues 11–318) was amplified via PCR; His8-SUMO (pET28-MKH8SUMO) (N, cleaved yes); made in house; host or cells: Escherichia coli BL21 (DE3)
T1 sequence (Q9H672 11-318): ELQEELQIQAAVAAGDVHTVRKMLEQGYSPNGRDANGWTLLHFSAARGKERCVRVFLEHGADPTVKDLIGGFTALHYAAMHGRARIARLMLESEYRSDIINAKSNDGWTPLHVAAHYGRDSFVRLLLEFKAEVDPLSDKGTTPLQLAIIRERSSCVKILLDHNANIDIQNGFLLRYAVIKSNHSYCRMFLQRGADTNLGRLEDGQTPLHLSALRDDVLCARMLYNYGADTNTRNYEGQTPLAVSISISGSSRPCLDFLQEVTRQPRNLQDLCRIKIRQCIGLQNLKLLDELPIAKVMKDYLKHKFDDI
T1 sequence (Q15370 1-104 partner limits assumed): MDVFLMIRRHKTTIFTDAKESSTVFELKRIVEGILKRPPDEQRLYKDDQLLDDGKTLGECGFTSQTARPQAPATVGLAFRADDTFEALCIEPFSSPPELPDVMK
T1 sequence (Q15369 17-112 partner limits assumed): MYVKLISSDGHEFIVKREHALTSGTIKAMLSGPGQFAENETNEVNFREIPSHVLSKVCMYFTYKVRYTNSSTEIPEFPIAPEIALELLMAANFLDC
Test: ITC of degron peptides with wild-type ASB7-Elongin B/C
Type: binding
Conditions: for ASB7 binding ability of substituted peptide, in words: wild-type ASB7, compared with native LZTS1-degron; for -T∆S / ∆G / ∆H: wild-type ASB7-Elongin B/C; for ∆H: mean ± SD of three repeats
Procedure: The human ASB7 (residues 11-318) was amplified via PCR from a human cDNA library and seamlessly cloned into the pET28-MKH8SUMO vector (Addgene plasmid #79526). […] ITC assays were performed using a MicroCal PEAQ-ITC instrument (Malvern Panalytical) at 16 °C. […] All protein and peptide stocks were prepared in an ITC buffer (20 mM Tris-HCl pH 7.5, and 150 mM NaCl) and subsequently diluted to the desired concentrations (39-156 μM for ASB7 protein and 0.8-4 mM for the peptides, respectively). In each experiment, 1.5 μL of peptide was titrated into the ASB7 complex solution with 15 injections. The injections were spaced at 90 seconds with a reference power of 15 μcal/s. The ITC data were processed using MicroCal PEAQ-ITC Analysis software.

[1] = ITC, MicroCal PEAQ-ITC, 16 °C, 20 mM Tris-HCl pH 7.5, 150 mM NaCl, peptide (0.8–4 mM) titrated into wild-type ASB7-Elongin B/C (39–156 μM), 15 injections, mean ± SD of three independent repeats, read-out: KD
[2] = ITC, 16 °C, 20 mM Tris-HCl pH 7.5, 150 mM NaCl

Kd [1]	ASB7 binding ability of substituted peptide, in words (ITC)	Molecule	other results
> 30 µM	–	CSCC[C@H](NC(=O)[C@H](CC(C)C)NC(=O)[C@H](CO)NC(=O)[C@H](CCC(=O)O)NC(=O)[C@H](CC(C)C)NC(=O)[C@@H](N)CCC(=O)O)C(=O)N[C@@H](CCCCN)C(=O)N[C@@H](CCC(=O)O)C(=O)N[C@@H](CCC(N)=O)C(=O)O (H-ELESLMKEQ-OH; N-terminus and C-terminus assumed)	–
> 30 µM	–	CSCC[C@H](NC(=O)[C@H](CC(C)C)NC(=O)[C@H](CO)NC(=O)[C@H](CCC(=O)O)NC(=O)[C@H](CC(C)C)NC(=O)[C@@H](N)CCC(=O)O)C(=O)N[C@@H](CCCCN)C(=O)N[C@@H](CCC(=O)O)C(=O)N[C@@H](CCC(N)=O)C(=O)N[C@@H](CC(=O)O)C(=O)N[C@@H](CC(C)C)C(=O)N[C@@H](CC(C)C)C(=O)N[C@@H](CCC(=O)O)C(=O)O (H-ELESLMKEQDLLE-OH; N-terminus and C-terminus assumed)	–
0.7 ± 0.31 µM	–	CSCC[C@H](NC(=O)[C@H](CC(C)C)NC(=O)[C@H](CO)NC(=O)[C@H](CCC(=O)O)NC(=O)[C@H](CC(C)C)NC(=O)[C@@H](N)CCC(=O)O)C(=O)N[C@@H](CCCCN)C(=O)N[C@@H](CCC(=O)O)C(=O)N[C@@H](CCC(N)=O)C(=O)N[C@@H](CC(=O)O)C(=O)N[C@@H](CC(C)C)C(=O)N[C@@H](CC(C)C)C(=O)N[C@@H](CCC(=O)O)C(=O)N[C@H](C(=O)N[C@@H](CCCCN)C(=O)N[C@@H](CC(C)C)C(=O)N[C@@H](CCCNC(=N)N)C(=O)N[C@@H](CO)C(=O)N[C@@H](Cc1ccc(O)cc1)C(=O)N[C@@H](CCC(=O)O)C(=O)N[C@@H](CCCNC(=N)N)C(=O)O)[C@@H](C)O (H-ELESLMKEQDLLETKLRSYER-OH)	–
> 30 µM	almost complete loss	CSCC[C@H](NC(=O)[C@H](CC(C)C)NC(=O)[C@H](CO)NC(=O)[C@H](CCC(=O)O)NC(=O)[C@H](CC(C)C)NC(=O)[C@H](CCC(=O)O)NC(=O)[C@H](CCC(N)=O)NC(=O)[C@@H](N)CCCNC(=N)N)C(=O)N[C@@H](CCCCN)C(=O)N[C@@H](CCCNC(=N)N)C(=O)N[C@@H](CCC(N)=O)C(=O)N[C@@H](CC(=O)O)C(=O)N[C@@H](CC(C)C)C(=O)N[C@@H](CC(C)C)C(=O)N[C@@H](CCC(=O)O)C(=O)N[C@H](C(=O)N[C@@H](CCCCN)C(=O)N[C@@H](CC(C)C)C(=O)N[C@@H](CCCNC(=N)N)C(=O)N[C@@H](CO)C(=O)N[C@@H](Cc1ccc(O)cc1)C(=O)N[C@@H](CCC(=O)O)C(=O)N[C@@H](CCCNC(=N)N)C(=O)O)[C@@H](C)O [E8R] (H-RQELESLMKRQDLLETKLRSYER-OH; N-terminus and C-terminus assumed)	–
–	–	CSCC[C@H](NC(=O)[C@H](CC(C)C)NC(=O)[C@H](CO)NC(=O)[C@H](CCC(=O)O)NC(=O)[C@H](CC(C)C)NC(=O)[C@@H](N)CCC(=O)O)C(=O)O [ELESLM] (H-ELESLM-OH)	Kd: > 30 µM
> 30 µM	almost complete loss	CSCC[C@H](NC(=O)[C@H](CCCNC(=N)N)NC(=O)[C@H](CO)NC(=O)[C@H](CCC(=O)O)NC(=O)[C@H](CC(C)C)NC(=O)[C@H](CCC(=O)O)NC(=O)[C@H](CCC(N)=O)NC(=O)[C@@H](N)CCCNC(=N)N)C(=O)N[C@@H](CCCCN)C(=O)N[C@@H](CCC(=O)O)C(=O)N[C@@H](CCC(N)=O)C(=O)N[C@@H](CC(=O)O)C(=O)N[C@@H](CC(C)C)C(=O)N[C@@H](CC(C)C)C(=O)N[C@@H](CCC(=O)O)C(=O)N[C@H](C(=O)N[C@@H](CCCCN)C(=O)N[C@@H](CC(C)C)C(=O)N[C@@H](CCCNC(=N)N)C(=O)N[C@@H](CO)C(=O)N[C@@H](Cc1ccc(O)cc1)C(=O)N[C@@H](CCC(=O)O)C(=O)N[C@@H](CCCNC(=N)N)C(=O)O)[C@@H](C)O [L5R] (H-RQELESRMKEQDLLETKLRSYER-OH; N-terminus and C-terminus assumed)	–
> 30 µM	almost complete loss	CSCC[C@H](NC(=O)[C@H](CC(C)C)NC(=O)[C@H](CO)NC(=O)[C@H](CCC(=O)O)NC(=O)[C@H](CC(C)C)NC(=O)[C@H](CCC(=O)O)NC(=O)[C@H](CCC(N)=O)NC(=O)[C@@H](N)CCCNC(=N)N)C(=O)N[C@@H](CCCCN)C(=O)N[C@@H](CCC(=O)O)C(=O)N[C@@H](CCC(N)=O)C(=O)N[C@@H](CC(=O)O)C(=O)N[C@@H](CC(C)C)C(=O)N[C@@H](CCCNC(=N)N)C(=O)N[C@@H](CCC(=O)O)C(=O)N[C@H](C(=O)N[C@@H](CCCCN)C(=O)N[C@@H](CC(C)C)C(=O)N[C@@H](CCCNC(=N)N)C(=O)N[C@@H](CO)C(=O)N[C@@H](Cc1ccc(O)cc1)C(=O)N[C@@H](CCC(=O)O)C(=O)N[C@@H](CCCNC(=N)N)C(=O)O)[C@@H](C)O [L12R] (H-RQELESLMKEQDLRETKLRSYER-OH; N-terminus and C-terminus assumed)	–
> 30 µM	almost complete loss	CSCC[C@H](NC(=O)[C@H](CC(C)C)NC(=O)[C@H](CO)NC(=O)[C@H](CCC(=O)O)NC(=O)[C@H](CC(C)C)NC(=O)[C@H](CCC(=O)O)NC(=O)[C@H](CCC(N)=O)NC(=O)[C@@H](N)CCCNC(=N)N)C(=O)N[C@@H](CCCCN)C(=O)N[C@@H](CCC(=O)O)C(=O)N[C@@H](CCC(N)=O)C(=O)N[C@@H](CC(=O)O)C(=O)N[C@@H](CC(C)C)C(=O)N[C@@H](CC(C)C)C(=O)N[C@@H](CCC(=O)O)C(=O)N[C@H](C(=O)N[C@@H](CCCCN)C(=O)N[C@@H](CCCNC(=N)N)C(=O)N[C@@H](CCCNC(=N)N)C(=O)N[C@@H](CO)C(=O)N[C@@H](Cc1ccc(O)cc1)C(=O)N[C@@H](CCC(=O)O)C(=O)N[C@@H](CCCNC(=N)N)C(=O)O)[C@@H](C)O [L16R] (H-RQELESLMKEQDLLETKRRSYER-OH; N-terminus and C-terminus assumed)	–
0.7 ± 0.05 µM	–	CSCC[C@H](NC(=O)[C@H](CC(C)C)NC(=O)[C@H](CO)NC(=O)[C@H](CCC(=O)O)NC(=O)[C@H](CC(C)C)NC(=O)[C@H](CCC(=O)O)NC(=O)[C@H](CCC(N)=O)NC(=O)[C@@H](N)CCCNC(=N)N)C(=O)N[C@@H](CCCCN)C(=O)N[C@@H](CCC(=O)O)C(=O)N[C@@H](CCC(N)=O)C(=O)N[C@@H](CC(=O)O)C(=O)N[C@@H](CC(C)C)C(=O)N[C@@H](CC(C)C)C(=O)N[C@@H](CCC(=O)O)C(=O)N[C@H](C(=O)N[C@@H](CCCCN)C(=O)N[C@@H](CC(C)C)C(=O)N[C@@H](CCCNC(=N)N)C(=O)N[C@@H](CO)C(=O)N[C@@H](CCCNC(=N)N)C(=O)N[C@@H](CCC(=O)O)C(=O)N[C@@H](CCCNC(=N)N)C(=O)O)[C@@H](C)O [Y19R] (H-RQELESLMKEQDLLETKLRSRER-OH)	–
–	–	EIGELKAVMEGIKMEHQLELGN [CLIP2-degron, synthetic degron peptide derived from CLIP2]	-T∆S [2]: 2.57 kcal/mol; ∆G [2]: -8.23 kcal/mol; ∆H [2]: -10.8 ± 0.25 kcal/mol
3.8 µM	–	ELEKAKQECQDLKGKLEKCCRH [CEP152-degron, synthetic degron peptide derived from CEP152]	-T∆S [2]: -4.79 kcal/mol; ∆G [2]: -6.59 kcal/mol; ∆H [2]: -1.8 ± 0.09 kcal/mol
